Test results published in US4616008A, “Antibacterial solid composition for oral administration” (Takeda Chemical Industries, Ltd., priority 1984, dated 1986).
Counter-ions that a name gives are not always drawn.

Assay: Test Example 3: Determination of oil/water partition coefficient (n-octanol / Sorensen buffer pH 7.0, HPLC)
Type: physicochemical
Conditions: dihydrochloride
Method: A 10-ml portion, of a solution prepared by dissolving the dihydrochloride of Compound No. 1 in Sorensen buffer solution (pH 7.0) to a concentration of 100 μg/ml is placed in a 50-ml centrifuagl tube, followed by addition of 10 ml of n-octanol. After shaking at 25° C. for 10 minutes, the mixture is centrifuged and the concentration of the cephalosporin compound in the aqueous layer is determined by high performance liquid chromatography [column: μ-Bondapak C-18 produced by Waters Associates, Canada; eluent: 0.05 M ammonium sulfate solution+acetonitrile+acetic acid (400:200:1 v/v)]. A value of 0.45 μg/ml is obtained. From this value, the oil/water partition coefficient is calculated as follows: [formula]

For `CC(OC(=O)OC1CCCCC1)OC(=O)C1=C(CSc2nnnn2CCN(C)C)CS[C@@H]2[C@H](NC(=O)Cc3csc(N)n3)C(=O)N12` (stereo partly drawn) [Compound No. 1, 1-(cyclohexyloxycarbonyloxy)ethyl 7β-[2-(2-aminothiazol-4-yl)acetamido]-3-[[[1-(2-dimethylaminoethyl-1H-tetrazol-5-yl]thio]methyl]ceph-3-em-4-carboxylatedihydrochloride], the “concentration of the cephalosporin compound in the aqueous layer” value (initial 100 μg/ml in Sorensen buffer pH 7.0, equal volume n-octanol, 25° C., 10 minutes shaking) was 450 ng/mL and the logD (n-octanol/Sorensen buffer pH 7.0, 25° C., calculated from aqueous concentration) was 2.34.
